Values joined by “and” are separate entries in the source; they are usually repeats but may differ in a detail not shown here. Equal values may be shown once.
Test: Solubility of rofecoxib in solvent systems containing two or three solvents; synergistic or antagonist effect
Format: physicochemical
Experimental: The solubility of rofecoxib in solvent systems containing two or three solvents was determined. In solvent systems containing two solvents, […] of each solvent was added to 100 mg of rofecoxib. In solvent systems containing three solvents, […] of each solvent was added to 100 mg of rofecoxib. The samples were mixed using the protocol for solvent systems containing single solvents above. Serial dilutions of the rofecoxib solvent solutions were made (1:100 v:v), (1:1000 v/v), and (1:2000 v/v). Solvents without rofecoxib were diluted with methanol and used to blank a Beckman DU-7400 spectrophotometer. The absorbance of the samples was determined at a wavelength of 279.1 nm. The concentration of rofecoxib dissolved in the solvent was calculated using Beer's Law. The ability of the solvent systems to synergistically dissolve rofecoxib or antagonistically dissolve rofecoxib (reduce the ability of rofecoxib to dissolve was determined) according to the protocol below. The contribution for solubility of a single solvent in a two-mixture solution was calculated to be ½ of the calculated solubility of rofecoxib in one gram of excipient. Likewise, the contribution for solubility of a three-mixture was calculated to be ⅓ of the calculated solubility of rofecoxib in one gram of excipient. The expected solubility for a mixture is the addition of the contribution of each excipient. […] The percent change between the expected solubility and actual solubility was determined. […] Similar calculations are utilized for solvent systems containing three or more solvents.

For `CS(=O)(=O)c1ccc(C2=C(c3ccccc3)C(=O)OC2)cc1` [Rofecoxib], which “Synergistic effect of three-solvent systems on dissolving rofecoxib” value (AC/PEG/PGD, BA/AC/PEG, BA/PEG/PGD, PC/AC/PGD, BA/AC/PGD, PC/PEG/PGD, DI/PC/AC, PC/BA/AC, DI/PC/BA, DI/PC/EA, PC/AC/PEG, DI/PC/DGME, DI/PC/PEG, DI/PC/PGD, DI/BA/PC, DI/PC/DMSO) is on record?
The value was “work synergistically to dissolve rofecoxib”.

And the “Synergistic effect of two-solvent systems on dissolving rofecoxib” value (BA/AC, AC/PEG, EA/PPG, PEG/EA, AC/DGME, AC/PC, AC/DI, PC/DI, PEG/PGD, AC/PGD, DI/PGD, PC/PGD, EA/DMSO, PEG/DGME, EA/DGME, EA/BA, DGME/PGD, BA/PGD, EA/M24D)?
The value was “work synergistically to dissolve rofecoxib”.

And the “expected solubility of rofecoxib in 500 μg of acetone” value (contribution of acetone in system of equal amounts acetone and benzyl alcohol)?
The value was 11.79 mg/g.

And the “expected solubility of rofecoxib in 500 μg of benzyl alcohol” value (contribution of benzyl alcohol in system of equal amounts acetone and benzyl alcohol)?
The value was 9.77 mg/g.

And the “% Change (observed vs expected solubility)” value (“% Change” for short) (in AC + DGME)?
The value was 139.9%.

What about the “Expected Solubility” value (in AC + DGME) of the same compound?
Its value is 16.30 mg/g.

And the “Observed Solubility” value (in AC + DGME)?
The value was 22.80 mg/g.

And the “% Change” value (in AC + EA)?
The value was 109.7%.

And the “Expected Solubility” value (in AC + EA)?
Its value is 14.52 mg/g.

What about the “Observed Solubility” value (in AC + EA) of the same compound?
Its value is 15.92 mg/g.

What about the “% Change” value (in AC + MP) of the same compound?
The value was 97.9% and 52.7%.

And the “Expected Solubility” value (in AC + MP)?
The value was 110.77 mg/g.

What about the “Observed Solubility” value (in AC + MP) of the same compound?
The value was 108.48 mg/g and 58.38 mg/g.

And the “% Change” value (in AC + MP + PEG)?
The value was 34.29%.

What about the “Expected Solubility” value (in AC + MP + PEG) of the same compound?
Its value is 78.24 mg/g.

And the “% Change” value (in AC + MP + PGD)?
Its value is 77.19%.

And the “Expected Solubility” value (in AC + MP + PGD)?
Its value is 76.17 mg/g.

What about the “% Change” value (in AC + PEG) of the same compound?
The value was 137.2% and 174.3%.

What about the “Expected Solubility” value (in AC + PEG) of the same compound?
Its value is 18.34 mg/g.

And the “Observed Solubility” value (in AC + PEG)?
Its value is 25.15 mg/g and 31.96 mg/g.

What about the “Expected Solubility” value (in AC + PEG + PGD) of the same compound?
Its value is 14.55 mg/g.

And the “% Change” value (in AC + PGD)?
The value was 124.0% and 113.7%.

What about the “Expected Solubility” value (in AC + PGD) of the same compound?
The value was 15.23 mg/g.

And the “Observed Solubility” value (in AC + PGD)?
Its value is 18.88 mg/g and 17.32 mg/g.

What about the “% Change” value (in BA + AC) of the same compound?
Its value is 150.7% and 134.8% and 100.7% and 185.3%.

And the “Expected Solubility” value (in BA + AC)?
Its value is 21.54 mg/g and 31.65 mg/g.

And the “Observed Solubility” value (in BA + AC)?
Its value is 32.46 mg/g and 29.03 mg/g and 31.86 mg/g and 39.91 mg/g.

What about the “% Change” value (in BA + AC + MP) of the same compound?
Its value is 48.23%.

And the “Expected Solubility” value (in BA + AC + MP)?
Its value is 80.37 mg/g.

And the “Expected Solubility” value (in BA + AC + PEG)?
The value was 18.75 mg/g.

And the “% Change” value (in BA + AC + PGD)?
The value was 197.12%.

What about the “Expected Solubility” value (in BA + AC + PGD) of the same compound?
Its value is 16.68 mg/g.

What about the “Observed Solubility” value (in BA + AC + PGD) of the same compound?
The value was 32.89 mg/g.

What about the “Expected Solubility” value (in BA + AC, listed as rofecoxib) of the same compound?
Its value is 21.56 mg/g.

What about the “% Change” value (in BA + DGME) of the same compound?
The value was 64.2%.

And the “Expected Solubility” value (in BA + DGME)?
Its value is 14.31 mg/g.

And the “Observed Solubility” value (in BA + DGME)?
Its value is 9.18 mg/g.

And the “% Change” value (in BA + EA)?
The value was 116.8%.

What about the “Expected Solubility” value (in BA + EA) of the same compound?
Its value is 12.52 mg/g.

What about the “Observed Solubility” value (in BA + EA) of the same compound?
The value was 14.63 mg/g.

And the “% Change” value (in BA + MP)?
The value was 41.3% and 30.8%.

And the “Expected Solubility” value (in BA + MP)?
Its value is 108.77 mg/g.

What about the “Observed Solubility” value (in BA + MP) of the same compound?
Its value is 44.97 mg/g and 33.53 mg/g.

And the “% Change” value (in BA + MP + PEG)?
The value was 40.43%.

What about the “Expected Solubility” value (in BA + MP + PEG) of the same compound?
Its value is 76.89 mg/g.

What about the “% Change” value (in BA + MP + PGD) of the same compound?
The value was 85.42%.

And the “Expected Solubility” value (in BA + MP + PGD)?
The value was 74.82 mg/g.

What about the “% Change” value (in BA + PEG) of the same compound?
The value was 63.2% and 61.6% and 60.6%.

What about the “Expected Solubility” value (in BA + PEG) of the same compound?
Its value is 16.34 mg/g.

What about the “Observed Solubility” value (in BA + PEG) of the same compound?
The value was 10.33 mg/g and 10.06 mg/g and 9.91 mg/g.

And the “Expected Solubility” value (in BA + PEG + PGD)?
Its value is 13.20 mg/g.

What about the “% Change” value (in BA + PGD) of the same compound?
Its value is 110.9% and 103.2%.

And the “Expected Solubility” value (in BA + PGD)?
The value was 13.24 mg/g.

And the “Observed Solubility” value (in BA + PGD)?
The value was 14.67 mg/g and 13.66 mg/g.

And the “% Change” value (in DGME + EA)?
The value was 117.3%.

What about the “Expected Solubility” value (in DGME + EA) of the same compound?
The value was 7.29 mg/g.

And the “Observed Solubility” value (in DGME + EA)?
Its value is 8.54 mg/g.

What about the “% Change” value (in DGME + PGD) of the same compound?
The value was 115.7%.

What about the “Expected Solubility” value (in DGME + PGD) of the same compound?
The value was 8.00 mg/g.

What about the “Observed Solubility” value (in DGME + PGD) of the same compound?
Its value is 9.26 mg/g.

What about the “% Change” value (in DI + AC) of the same compound?
Its value is 134.6%.

And the “Expected Solubility” value (in DI + AC)?
The value was 31.34 mg/g.

And the “Observed Solubility” value (in DI + AC)?
The value was 42.18 mg/g.

What about the “% Change” value (in DI + BA) of the same compound?
Its value is 72.3%.

And the “Expected Solubility” value (in DI + BA)?
Its value is 29.34 mg/g.

What about the “Observed Solubility” value (in DI + BA) of the same compound?
The value was 21.20 mg/g.

What about the “% Change” value (in DI + BA + DMSO) of the same compound?
Its value is 85.05%.

What about the “Expected Solubility” value (in DI + BA + DMSO) of the same compound?
The value was 67.43 mg/g.

And the “% Change” value (in DI + BA + PC)?
Its value is 155.19%.

What about the “Expected Solubility” value (in DI + BA + PC) of the same compound?
The value was 36.04 mg/g.

What about the “Observed Solubility” value (in DI + BA + PC) of the same compound?
Its value is 55.93 mg/g.

What about the “% Change” value (in DI + DGME) of the same compound?
The value was 95.0%.

What about the “Expected Solubility” value (in DI + DGME) of the same compound?
The value was 24.11 mg/g.

And the “Observed Solubility” value (in DI + DGME)?
Its value is 22.91 mg/g.

And the “% Change” value (in DI + EA)?
Its value is 69.9%.

What about the “Expected Solubility” value (in DI + EA) of the same compound?
Its value is 22.32 mg/g.

And the “Observed Solubility” value (in DI + EA)?
Its value is 15.60 mg/g.

And the “% Change” value (in DI + MP)?
Its value is 71.6%.

And the “Expected Solubility” value (in DI + MP)?
Its value is 118.57 mg/g.

What about the “Observed Solubility” value (in DI + MP) of the same compound?
Its value is 84.92 mg/g.

And the “% Change” value (in DI + PC)?
Its value is 133.9% and 130.6%.

What about the “Expected Solubility” value (in DI + PC) of the same compound?
The value was 44.29 mg/g.

What about the “Observed Solubility” value (in DI + PC) of the same compound?
Its value is 59.30 mg/g and 57.83 mg/g.

What about the “% Change” value (in DI + PC + AC) of the same compound?
Its value is 143.72%.

What about the “Expected Solubility” value (in DI + PC + AC) of the same compound?
The value was 37.38 mg/g.

What about the “Observed Solubility” value (in DI + PC + AC) of the same compound?
The value was 53.73 mg/g.

What about the “% Change” value (in DI + PC + BA) of the same compound?
Its value is 132.30%.

And the “Expected Solubility” value (in DI + PC + BA)?
The value was 36.04 mg/g.

And the “Observed Solubility” value (in DI + PC + BA)?
The value was 47.68 mg/g.

And the “% Change” value (in DI + PC + DGME)?
Its value is 123.28%.

And the “Expected Solubility” value (in DI + PC + DGME)?
Its value is 32.55 mg/g.

And the “Observed Solubility” value (in DI + PC + DGME)?
Its value is 40.12 mg/g.

And the “% Change” value (in DI + PC + DMSO)?
The value was 114.83%.

And the “Expected Solubility” value (in DI + PC + DMSO)?
Its value is 77.39 mg/g.

What about the “% Change” value (in DI + PC + EA) of the same compound?
Its value is 128.04%.

And the “Expected Solubility” value (in DI + PC + EA)?
Its value is 31.36 mg/g.

And the “Observed Solubility” value (in DI + PC + EA)?
The value was 40.15 mg/g.

And the “% Change” value (in DI + PC + PEG)?
The value was 119.10%.

And the “Expected Solubility” value (in DI + PC + PEG)?
The value was 33.90 mg/g.

What about the “Observed Solubility” value (in DI + PC + PEG) of the same compound?
The value was 40.38 mg/g.

What about the “% Change” value (in DI + PC + PGD) of the same compound?
Its value is 115.12%.

What about the “Expected Solubility” value (in DI + PC + PGD) of the same compound?
The value was 31.83 mg/g.

What about the “Observed Solubility” value (in DI + PC + PGD) of the same compound?
Its value is 36.65 mg/g.

And the “% Change” value (in DI + PEG)?
The value was 105.8%.

What about the “Expected Solubility” value (in DI + PEG) of the same compound?
Its value is 26.14 mg/g.

What about the “Observed Solubility” value (in DI + PEG) of the same compound?
Its value is 27.65 mg/g.

Reference: patent US11260023B2, “Topical compositions containing rofecoxib and methods of making and using the same” (BRIORI BIOTECH, LLC, priority 2020, dated 2022)
